Among the data in BindingDB's records for doi:10.1111/j.1747-0285.2005.00317.x (Abbott Laboratories, 2006) are IC50 values, retold here.

This assay has as its target T1, UDP-N-acetylmuramoyl-tripeptide--D-alanyl-D-alanine ligase (Streptococcus pneumoniae (strain ATCC BAA-255 / R6), UniProt Q8DNV6).
T1 sequence (Q8DNV6 whole entry): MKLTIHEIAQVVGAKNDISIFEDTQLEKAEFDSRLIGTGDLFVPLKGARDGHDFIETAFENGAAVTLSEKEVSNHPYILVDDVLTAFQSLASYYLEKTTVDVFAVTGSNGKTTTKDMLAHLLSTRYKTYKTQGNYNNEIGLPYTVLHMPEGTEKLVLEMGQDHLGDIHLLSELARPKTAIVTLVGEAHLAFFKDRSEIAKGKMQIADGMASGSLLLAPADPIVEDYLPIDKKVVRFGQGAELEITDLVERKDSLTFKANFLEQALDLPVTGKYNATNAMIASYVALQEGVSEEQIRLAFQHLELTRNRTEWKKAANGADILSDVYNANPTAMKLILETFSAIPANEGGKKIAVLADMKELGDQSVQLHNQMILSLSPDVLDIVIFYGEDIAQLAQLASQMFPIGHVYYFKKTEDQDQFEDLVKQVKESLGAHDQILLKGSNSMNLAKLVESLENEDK
In words: Inhibition Assay. The source says: Inhibition of D-Ala-D-Ala adding enzyme (MurF) from Streptococcus pneumoniase.

As for `CCN(CC)S(=O)(=O)c1cc(C(=O)Nc2sc3c(c2C#N)CCC(c2ccc(O)cc2)C3)c(Cl)cc1Cl` (stereo not drawn) [MurF inhibitor, 15], inhibition was half-maximal at 0.07 µM (IC50).

As for `N#Cc1c(NC(=O)c2cc(S(=O)(=O)C3CCOCC3)ccc2Cl)sc2c1CCC2` [MurF inhibitor, 3], the IC50 came to 9 µM. In the case of `N#Cc1c(NC(=O)c2cc(S(=O)(=O)N3CCCCC3)ccc2Cl)sc2c1CCCC2` [MurF inhibitor, 5] it was 2.5 µM; in that of `N#Cc1c(NC(=O)c2cc(S(=O)(=O)NCCCCO)ccc2Cl)sc2c1CCC2` [MurF inhibitor, 4], 22 µM. To `CCN(CC)S(=O)(=O)c1ccc(Cl)c(C(=O)Nc2sc(Br)cc2C#N)c1` [MurF inhibitor, 13] belongs 12.6 µM; to `CCN(CC)S(=O)(=O)c1ccc(Cl)c(C(=O)Nc2sccc2C#N)c1` [MurF inhibitor, 12], 151 µM; to `N#Cc1cc(CCc2ccccn2)sc1NC(=O)c1cc(S(=O)(=O)N2CCOCC2)ccc1Cl` [MurF inhibitor, 14], 6 µM. In the case of `N#Cc1c(NC(=O)c2cc(S(N)(=O)=O)ccc2Cl)sc2c1CCC2` [MurF inhibitor, 6] it was 78 µM.
